Results published in patent US20260325654A1, “METHODS AND COMPOSITIONS FOR TARGETED PROTEIN DEGRADATION” (Ranok Therapeutics (Hangzhou) Co. Ltd., priority 2023, published 2026).

Key:
AGS = assay: CellTiter-Glo Reagent cancer cell line proliferation assay, AGS; assay type: cell-based, human; conditions: Homo sapiens, 24 h, KRAS(G12D) heterozygous
Text: (§1) The following cancer cell lines were employed: • AsPC-1 human pancreatic adenocarcinoma, homozygous KRAS(G12D), (ATCC, #CRL-1682); A-427 human lung carcinoma, heterozygous KRAS(G12D), (ATCC, #HTB-53); AGS human gastric adenocarcinoma, heterozygous KRAS(G12D), (ATCC, #CRL-1739); GP2D human colon adenocarcinoma, heterozygous KRAS(G12D), (Sigma Aldrich, 95090714); SW1990 human pancreatic adenocarcinoma, homozygous KRAS(G12D), (ATCC, #CRL2172); LU65A human lung giant cell carcinoma, heterozygous KRAS(G12C), (JCRB Cell Bank, #JCRB0054); NCIH727 human lung carcinoid, heterozygous KRAS(G12V), (ATCC, #CRL-5815); MKN1 human gastric adenosquamous carcinoma KRAS (wt), (JCRB Cell Bank, #JCRB0252). Cell lines were cultured according to ATCC, JCRB and Sigma Aldrich recommendations.
(§2) Cells were plated in 96-well tissue culture plates at 4,000 cells/well and incubated at 37° C./5% CO2 for 24 hr in 100 μl of media. 3-fold serial dilutions of each test compound were prepared ranging from 20 μM to 1.02 nM. Cells were then treated with test compounds at various concentrations with a final concentration of 0.5% DMSO/well, and then incubated at 37° C./5% CO2 for 24 hr. 100 μl of CellTiter-Glo® Reagent (Promega Corporation, Madison, WI) was added to each well and processed according manufacturer's protocol. Results were analyzed and IC50-values were calculated in GraphPad 7 software.

GP2D = assay: CellTiter-Glo Reagent cancer cell line proliferation assay, GP2D; assay type: cell-based; conditions: Homo sapiens, KRAS(G12D) heterozygous, 24 hr
Text: as §1, §2

LU65A = assay: CellTiter-Glo Reagent cancer cell line proliferation assay, LU65A; assay type: cell-based, human; conditions: Homo sapiens, 24 h, KRAS(G12C) heterozygous
Text: as §1, §2

NCIH727 = assay: CellTiter-Glo Reagent cancer cell line proliferation assay, NCIH727; assay type: cell-based, human; conditions: Homo sapiens, NCI-H727, 24 h, NCIH727, KRAS(G12V) heterozygous
Text: as §1, §2

MKN1 = assay: CellTiter-Glo Reagent cancer cell line proliferation assay, MKN1; assay type: cell-based; conditions: Homo sapiens, MKN-1; MKN1, KRAS (wt), 24 hr
Text: as §1, §2

KRAS(G12C) = biological target: T1, KRAS(G12C) (Homo sapiens, UniProt P01116, G12C); assay: KRAS Western Blot Protein Degradation Assay, LU65A; assay type: cell-based; conditions: 24 hr; for DC50: read-out: WB data LU65A DC50; for Dmax: read-out: WB data LU65A DMax
T1 construct: LU65A that expresses KRAS(G12C); host or cells: LU65A
T1 sequence (P01116 1-185 isoform P01116-2 G12C limits assumed): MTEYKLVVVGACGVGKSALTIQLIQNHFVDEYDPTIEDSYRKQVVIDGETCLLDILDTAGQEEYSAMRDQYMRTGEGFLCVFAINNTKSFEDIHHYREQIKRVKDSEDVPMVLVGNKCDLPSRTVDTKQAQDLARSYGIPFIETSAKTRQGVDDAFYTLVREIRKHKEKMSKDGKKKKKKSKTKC
Text: as §1
(§3) Cell lines SW1990 and GP2D that express KRAS(G12D), LU65A that expresses KRAS(G12C), and NCIH727 that expresses KRAS(G12V) were seeded in 6- or 12-well tissue culture plates, and after 1 hr, test compounds were added at various concentrations and incubated at 37° C./5% CO2 for 24 hr. Cells were then washed with cold PBS, aspirated and cold RIPA buffer containing a protease/phosphatase inhibitor cocktail was added to lyse cells. After centrifugation, the total protein concentrations of cell lysates were determined using the BCA protein assay. Samples were normalized for equivalent protein concentrations, 5× SDS-PAGE loading buffer added and denatured at 100° C. for 10 min. 20 μl of each sample/well was loaded on a SDS-PAGE gel and electrophoresed for 20 min at 80 V, then 120 V for 1.5 hr. Gels were then electroblotted to nitrocellulose membranes using a wet-transfer method at 250 mA for 2.5 hr. Membranes were incubated with blocking buffer for 1 hr and washed 3 times with TBST for 5 min. Membranes were then incubated with anti-KRAS (Sigma-Aldrich, #SAB1404011) and anti-β-Actin monoclonal antibodies (Cell Signaling Technology, #3700) diluted in blocking buffer at 4° C. overnight per the manufacturer's recommendations. After washing 3 times, blots were incubated with appropriately labeled secondary antibodies for 1 hr at room temperature and washed again. Fluorescence imaging and quantitation was performed using a LI-COR Odyssey. Results was analyzed using GraphPad Prism 7 software. Compound concentrations that induced KRAS degradation (DC50 and DCmax) were calculated using GraphPad Prism 7 software.

KRAS(G12V) = biological target: T2, KRAS(G12V) (Homo sapiens, UniProt P01116, G12V); assay: KRAS Western Blot Protein Degradation Assay, NCIH727; assay type: cell-based; conditions: for DC50: 24 hr, read-out: WB data NCIH727 DC50; for Dmax: NCI-H727, 24 hr, read-out: WB data NCIH727 DMax
T2 construct: anti-KRAS Western blot degradation by PROTACs recruiting CRBN or VHL
T2 sequence (P01116 1-188 isoform P01116-2 G12V): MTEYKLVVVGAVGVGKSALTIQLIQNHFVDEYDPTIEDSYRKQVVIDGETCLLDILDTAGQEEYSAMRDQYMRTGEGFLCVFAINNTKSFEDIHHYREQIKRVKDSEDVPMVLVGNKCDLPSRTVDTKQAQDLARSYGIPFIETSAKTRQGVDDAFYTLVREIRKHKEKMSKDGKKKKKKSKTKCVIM
Text: as §1, §3

| Compound | IC50 (AGS) [µM] | IC50 (GP2D) [µM] | IC50 (LU65A) [µM] | IC50 (NCIH727) [µM] | IC50 (MKN1) [µM] | DC50 (KRAS(G12C)) [µM] | Dmax (KRAS(G12C)) [%] | DC50 (KRAS(G12V)) [µM] | Dmax (KRAS(G12V)) [%] |
| --- | --- | --- | --- | --- | --- | --- | --- | --- | --- |
| C#Cc1c(F)ccc2cc(O)cc(-c3ncc4c(N5CCN(C(=O)CC#N)[C@@H](CC#N)C5)nc(OCC5(CN6CCN(CC7CCN(c8ccc9c(c8)CN(C8CCC(=O)NC8=O)C9=O)CC7)CC6)CC5)nc4c3F)c12 (stereo partly drawn) [Compound 103, 3-((2S)-2-(cyanomethyl)-4-(2-((1-((4-((1-(2-(2,6-dioxopiperidin-3-yl)-1-oxoisoindolin-5-yl)piperidin-4-yl)methyl)piperazin-1-yl)methyl)cyclopropyl)methoxy)-7-(8-ethynyl-7-fluoro-3-hydroxynaphthalen-1-yl)-8-fluoropyrido[4,3-d]pyrimidin-4-yl)piperazin-1-yl)-3-oxopropanenitrile] | > 1 | > 1 | > 1 | > 1 | > 1 | > 1 | 10 to 50 | > 1 | > 50 |
| C#Cc1c(F)ccc2cc(O)cc(-c3ncc4c(N5CC6CCC(C5)N6C(=O)NC(C)(C)C)nc(OCC5(CN6CCN(CC7CCN(c8ccc9c(c8)CN(C8CCC(=O)NC8=O)C9=O)CC7)CC6)CC5)nc4c3F)c12 (stereo not drawn) [Compound 118] | 0.1 to 1 | < 0.1 | 0.1 to 1 | > 1 | 0.1 to 1 | – | – | – | – |
| [2H]C([2H])([2H])Oc1nc(-c2cc(O)cc3ccc(F)c(C#C)c23)c(F)c2nc(OCC3(CN4CCN(CC5CCN(c6ccc7c(c6)CN(C6CCC(=O)NC6=O)C7=O)CC5)CC4)CC3)nc(N3CC4CCC(C3)N4C(=O)C(C)CC#N)c12 (stereo not drawn) [Compound 116] | 0.1 to 1 | 0.1 to 1 | 0.1 to 1 | > 1 | 0.1 to 1 | – | – | – | – |
| C#Cc1c(F)ccc2cc(O)cc(-c3ncc4c(N5CC6CCC(C5)N6C(=O)CC#N)nc(OCC5(CN6CCN(CC7CCN(c8ccc9c(c8)CN(C8CCC(=O)NC8=O)C9=O)CC7)CC6)CC5)nc4c3F)c12 (stereo not drawn) [Compound 80] | – | – | 0.1 to 1 | < 0.1 | – | < 0.1 | > 50 | 0.1 to 1 | > 50 |
| C#Cc1c(F)ccc2cc(O)cc(-c3ncc4c(N5CC6CCC(C5)N6C(=O)[C@H](C)C#N)nc(OCC5(CN6CCN(CC7CCN(c8ccc9c(c8)CN(C8CCC(=O)NC8=O)C9=O)CC7)CC6)CC5)nc4c3F)c12 (stereo partly drawn) [Compound 110] | > 1 | > 1 | < 0.1 | 0.1 to 1 | 0.1 to 1 | – | – | – | – |
| C#Cc1c(F)ccc2cc(O)cc(-c3nc(OC)c4c(N5CC6CCC(C5)N6C(=O)CCC#N)nc(OCC5(CN6CCN(CC7CCN(c8ccc9c(c8)CN(C8CCC(=O)NC8=O)C9=O)CC7)CC6)CC5)nc4c3F)c12 (stereo not drawn) [Compound 117] | < 0.1 | < 0.1 | < 0.1 | < 0.1 | 0.1 to 1 | – | – | – | – |

The remaining lines, values ahead:

| IC50 (AGS) [µM] | IC50 (GP2D) [µM] | IC50 (LU65A) [µM] | IC50 (NCIH727) [µM] | IC50 (MKN1) [µM] | DC50 (KRAS(G12C)) [µM] | Dmax (KRAS(G12C)) [%] | DC50 (KRAS(G12V)) [µM] | Dmax (KRAS(G12V)) [%] | Compound |
| --- | --- | --- | --- | --- | --- | --- | --- | --- | --- |
| – | – | < 0.1 | – | > 1 | < 0.1 | > 50 | – | – | C#Cc1c(F)ccc2cc(O)cc(-c3ncc4c(N5CCN(C(=O)C(=C)F)[C@@H](CC#N)C5)nc(OCC5(CN6CCN(CC7CCN(c8ccc9c(c8)CN(C8CCC(=O)NC8=O)C9=O)CC7)CC6)CC5)nc4c3F)c12 (stereo partly drawn) [Compound 105] |
| < 0.1 | < 0.1 | < 0.1 | < 0.1 | > 1 | < 0.1 | > 50 | < 0.1 | > 50 | O=CO.[2H]C([2H])([2H])Oc1nc(-c2cc(O)cc3ccc(F)c(C#C)c23)c(F)c2nc(OCC3(CN4CCN(CC5CCN(c6ccc7c(c6)CN(C6CCC(=O)NC6=O)C7=O)CC5)CC4)CC3)nc(N3CC4CCC(C3)N4C(=O)CC(C)C#N)c12 (stereo not drawn) [Compound 115] |
| 0.1 to 1 | 0.1 to 1 | < 0.1 | < 0.1 | 0.1 to 1 | < 0.1 | > 50 | < 0.1 | > 50 | C#Cc1c(F)ccc2cc(O)cc(-c3ncc4c(N5CC6CCC(C5)N6C(=O)C(C)C#N)nc(OCC5(CN6CCN(CC7CCN(c8ccc9c(c8)CN(C8CCC(=O)NC8=O)C9=O)CC7)CC6)CC5)nc4c3F)c12 (stereo not drawn) [Compound 108] |
| – | – | < 0.1 | > 1 | > 1 | < 0.1 | > 50 | – | – | C#Cc1c(F)ccc2cc(O)cc(-c3ncc4c(N5CCN(C(=O)C=C)[C@@H](CC#N)C5)nc(OCC5(CN6CCN(CC7CCN(c8ccc9c(c8)CN(C8CCC(=O)NC8=O)C9=O)CC7)CC6)CC5)nc4c3F)c12 (stereo partly drawn) [Compound 79] |
| > 1 | 0.1 to 1 | < 0.1 | > 1 | > 1 | – | – | – | – | O=CO.[2H]C([2H])([2H])Oc1nc(-c2cc(O)cc3ccc(F)c(C#C)c23)c(F)c2nc(OCC3(CN4CCN(CC5CCN(c6ccc7c(c6)CN(C6CCC(=O)NC6=O)C7=O)CC5)CC4)CC3)nc(N3CC4CCC(C3)N4C(=O)C(C#N)CC(F)(F)F)c12 (stereo not drawn) [Compound 121] |
| < 0.1 | < 0.1 | < 0.1 | < 0.1 | > 1 | – | – | – | – | C#Cc1c(F)ccc2cc(O)cc(-c3nc(OC)c4c(N5CC6CCC(C5)N6C(=O)NCC(F)(F)F)nc(OCC5(CN6CCN(CC7CCN(c8ccc9c(c8)CN(C8CCC(=O)NC8=O)C9=O)CC7)CC6)CC5)nc4c3F)c12 (stereo not drawn) [Compound 123] |
| < 0.1 | < 0.1 | < 0.1 | 0.1 to 1 | > 1 | – | – | – | – | C#Cc1c(F)ccc2cc(O)cc(-c3nc(OC)c4c(N5CC6CCC(C5)N6C(=O)NCC#N)nc(OCC5(CN6CCN(CC7CCN(c8ccc9c(c8)CN(C8CCC(=O)NC8=O)C9=O)CC7)CC6)CC5)nc4c3F)c12 (stereo not drawn) [Compound 122] |
| 0.1 to 1 | 0.1 to 1 | < 0.1 | 0.1 to 1 | > 1 | – | – | < 0.1 | > 50 | C#Cc1c(F)ccc2cc(O)cc(-c3ncc4c(N5CC6CCC(C5)N6C(=O)[C@@H](C)C#N)nc(OCC5(CN6CCN(CC7CCN(c8ccc9c(c8)CN(C8CCC(=O)NC8=O)C9=O)CC7)CC6)CC5)nc4c3F)c12 (stereo partly drawn) [Compound 109] |
